# Results published in patent US20240166636A1, “CRYSTALLINE COMPOUNDS AND METHODS OF MAKING THE SAME” (Epizyme, Inc., priority 2019, published 2024).
# Key:
# Assay type in all cases: physicochemical
# [1] = Hygroscopicity (dynamic vapor sorption); conditions: compared to other salt forms of Compound I
# Description: Dynamic Vapor Sorption (DVS) was measured on a VTI Model SGA-100 system. Measurement method: The relative humidity (RH) was changed in a controlled fashion, in 5% steps from 5.0% to 95.0% then back to 5.0% using the gravimetric vapor sorption system, and the weight percentage change (wt. %) of the sample at each stage was measured.
# [2] = Intrinsic dissolution rate of polymorphs
# [3] = Competitive slurry experiments, thermodynamically most stable form; conditions: 50/50% (w/w) mixture of Polymorph A and Polymorph B, slurried for several days, varying water content and temperature
# Description: Several slurries were prepared, varying the water content and the temperature. […] As a result, the isolation temperature (e.g. in step b-2) was increased (e.g., from 15° C. to 22° C.) and the water content of the solvent system during the cooling crystallization was reduced (e.g., from 9.7% (v/v) to 9.0% (v/v)).
SMILES,hygroscopicity [1],Intrinsic Dissolution Rate (IDR) [2] [mg/min/cm^2],% Rate relative to From A ([2]; IDR relative to Polymorph A) [%],thermodynamically most stable form as a function of temperature and water content in the solvent [3]
"Br.CCN(c1cc(-c2ccc(CN3CCOCC3)cc2)cc(C(=O)NCc2c(C)cc(C)[nH]c2=O)c1C)C1CCOCC1 [Compound I hydrobromide, N-((4,6-dimethyl-2-oxo-1,2-dihydropyridin-3-yl)methyl)-5-(ethyl (tetrahydro-2H-pyran-4-yl)amino)-4-methyl-4′-(morpholinomethyl)-[1,1′-biphenyl]-3-carboxamide hydrobromide]",low hygroscopicity,–,–,–
CN(C)CCc1c[nH]c2cccc(OP(=O)(O)O)c12 [Polymorph A],–,7.6,100,stable form at higher temperatures and lower water content
